Patent publication US6737383B1, “Herbicidal oxadiazolidines” (priority 1999, dated 2004)

How the values were obtained:
[1] = system: wheat; assay: Test B pre/postemergence wheat; format: in vivo, Triticum aestivum
Outline: (§1)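 Test chemicals in a non-phytotoxic solvent mixture with surfactant were sprayed preemergence onto planted seeds and postemergence onto plants 2 to 18 cm tall (1- to 4-leaf stage). After twelve to sixteen days in a greenhouse, injury was visually rated against untreated controls from 0 (no effect) to 10 (complete control).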

[2] = system: rice; assay: Test B flood test rice; format: in vivo, Oryza sativa
Outline: (§2)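 Read-out is a visual response score from 0 (no effect) to 10 (complete control), assigned by comparison with untreated controls. Treatment was applied at the 2-leaf stage, and plants stayed in the greenhouse for twelve to sixteen days before scoring.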

[3] = system: surinam grass; assay: Test B pre/postemergence surinam grass; format: in vivo, Brachiaria decumbens
Outline: as §1

[4] = system: bedstraw; assay: Test B pre/postemergence bedstraw; format: in vivo, Galium aparine; details: Postemergence, Rate 62 g/ha; scale 0 to 10, 0 is no effect, 10 is complete control
Outline: as §1

[5] = system: duck salad; assay: Test B flood test duck salad; format: in vivo, Heteranthera limosa
Outline: as §2

[6] = system: soybean; assay: Test B pre/postemergence soybean; format: in vivo, Glycine max
Outline: as §1

[7] = system: smallflower flatsedge; assay: Test B flood test smallflower flatsedge; format: in vivo, Cyperus difformis
Outline: as §2

[8] = system: giant foxtail; assay: Test B pre/postemergence giant foxtail; format: in vivo, Setaria faberii
Outline: as §1

[9] = system: wild oat; assay: Test B pre/postemergence wild oat; format: in vivo, Avena fatua
Outline: as §1

[10] = system: velvetleaf; assay: Test B pre/postemergence velvetleaf; format: in vivo, Abutilon theophrasti
Outline: as §1

[11] = system: purple nutsedge; assay: Test B pre/postemergence purple nutsedge; format: in vivo, Cyperus rotundus
Outline: as §1

[12] = system: corn; assay: Test B pre/postemergence corn; format: in vivo, Zea mays
Outline: as §1

[13] = system: cocklebur; assay: Test B pre/postemergence cocklebur; format: in vivo, Xanthium strumarium
Outline: as §1

[14] = system: rape; assay: Test B pre/postemergence rape; format: in vivo, Brassica napus
Outline: as §1

[15] = system: sugar beet; assay: Test B pre/postemergence sugar beet; format: in vivo, Beta vulgaris
Outline: as §1

[16] = system: pigweed; assay: Test B pre/postemergence pigweed; format: in vivo, Amaranthus retroflexus
Outline: as §1

[17] = Postemergence, Rate 62 g/ha, scale 0 to 10, 0 is no effect, 10 is complete control
[18] = Postemergence, Rate 125 g/ha, scale of 0 to 10 where 0 is no effect and 10 is complete control
[19] = Preemergence, Rate 62 g/ha, scale of 0 to 10 where 0 is no effect and 10 is complete control
[20] = Preemergence, Rate 125 g/ha, scale of 0 to 10 where 0 is no effect and 10 is complete control
[21] = Preemergence, Rate 250 g/ha, scale 0 to 10 (0 no effect, 10 complete control)
[22] = Preemergence, Rate 500 g/ha, scale of 0 to 10 where 0 is no effect and 10 is complete control
[23] = Rate 500 g/ha, Postemergence, scale 0 to 10, 0 is no effect, 10 is complete control
[24] = Rate 62 g/ha, flood test species, Pre-emergence, visual evaluation after twelve to sixteen days
[25] = Rate 125 g/ha, under heading Pre-emergence, flood test species, visual evaluation after twelve to sixteen days
[26] = Rate 250 g/ha, Pre-emergence (flood test species), scale 0 to 10, 0 is no effect, 10 is complete control
[27] = Rate 500 g/ha, Pre-emergence section of Table B, 0 to 10 scale (0 no effect, 10 complete control)
[28] = Postemergence, Rate 250 g/ha, scale of 0 to 10, 0 is no effect, 10 is complete control

CC[C@@H](C)n1c(=O)on(C(=O)N(c2ccc(F)cc2F)C(C)C)c1=O [Compound 667]
6: Plant response rating, Wheat [1, 22] | B. signalgrass plant response rating [3, 28] | Plant response rating, Soybean [6, 21] | Wild oats plant response rating [9, 23] | Velvetleaf plant response rating [10, 18] | Velvetleaf plant response rating [10, 19] | Velvetleaf plant response rating [10, 20] | Rape plant response rating [14, 23]
8: Plant response rating, B. signalgrass [3, 21] | Plant response rating, B. signalgrass [3, 22] | Wild oats plant response rating [9, 20] | Plant response rating, Wild oats [9, 21] | Plant response rating, Velvetleaf [10, 21] | Velvetleaf plant response rating [10, 23] | Rape plant response rating [14, 20] | Plant response rating, Sugarbeets [15, 21]
9: Giant foxtail plant response rating [8, 18] | Giant foxtail plant response rating [8, 28] | Giant foxtail plant response rating [8, 23]
0: Plant response rating, Wheat [1, 17] | Wheat plant response rating [1, 18] | Plant response rating, Rice (0 to 10 scale, 0 is no effect, 10 is complete control) [2, 24] | Rice plant response rating (0 to 10 scale, 0 is no effect, 10 is complete control) [2, 25] | Rice plant response rating [2, 26] | Rice plant response rating [2, 27] | Plant response rating, B. signalgrass [3, 17] | Plant response rating, Bedstraw [4] | Plant response rating, Ducksalad (0 to 10 scale, 0 is no effect, 10 is complete control) [5, 24] | Ducksalad plant response rating (0 to 10 scale, 0 is no effect, 10 is complete control) [5, 25] | Ducksalad plant response rating [5, 26] | Ducksalad plant response rating [5, 27] | Soybean plant response rating [6, 19] | Plant response rating, S. Flatsedge (0 to 10 scale, 0 is no effect, 10 is complete control) [7, 24] | S. Flatsedge plant response rating (0 to 10 scale, 0 is no effect, 10 is complete control) [7, 25] | S. Flatsedge plant response rating [7, 26] | S. Flatsedge plant response rating [7, 27] | Plant response rating, Wild oats [9, 17] | Plant response rating, Nutsedge [11, 17] | Nutsedge plant response rating [11, 18] | Nutsedge plant response rating [11, 19] | Nutsedge plant response rating [11, 20] | Nutsedge plant response rating [11, 23] | Corn plant response rating [12, 19] | Cocklebur plant response rating [13, 19] | Cocklebur plant response rating [13, 20] | Plant response rating, Cocklebur [13, 21] | Plant response rating, Cocklebur [13, 22] | Plant response rating, Rape [14, 17] | Plant response rating, Sugarbeets [15, 17] | Sugarbeets plant response rating [15, 18]
4: Plant response rating, B. signalgrass [3, 18] | Wild oats plant response rating [9, 18] | Wild oats plant response rating [9, 19] | Plant response rating, Corn [12, 17] | Corn plant response rating [12, 18] | Corn plant response rating [12, 28] | Corn plant response rating [12, 20] | Cocklebur plant response rating [13, 28] | Rape plant response rating [14, 18]
3: B. signalgrass plant response rating [3, 19] | Soybean plant response rating [6, 18] | Soybean plant response rating [6, 20] | Plant response rating, Nutsedge [11, 21] | Cocklebur plant response rating [13, 18] | Sugarbeets plant response rating [15, 23]
10: Giant foxtail plant response rating [8, 19] | Giant foxtail plant response rating [8, 20] | Plant response rating, Giant foxtail [8, 21] | Plant response rating, Giant foxtail [8, 22] | Plant response rating, Wild oats [9, 22] | Plant response rating, Velvetleaf [10, 22] | Plant response rating, Corn [12, 22] | Plant response rating, Rape [14, 21] | Plant response rating, Rape [14, 22] | Plant response rating, Sugarbeets [15, 22] | Redroot pigweed plant response rating [16, 19] | Redroot pigweed plant response rating [16, 20] | Plant response rating, Redroot pigweed [16, 21] | Plant response rating, Redroot pigweed [16, 22]
2: Wheat plant response rating [1, 19] | Wheat plant response rating [1, 20] | Plant response rating, Soybean [6, 17] | Plant response rating, Cocklebur [13, 17] | Plant response rating, Redroot pigweed [16, 17]
5: Plant response rating, Wheat [1, 21] | Wheat plant response rating [1, 23] | B. signalgrass plant response rating [3, 20] | Plant response rating, Giant foxtail [8, 17] | Plant response rating, Velvetleaf [10, 17] | Corn plant response rating [12, 23] | Cocklebur plant response rating [13, 23] | Sugarbeets plant response rating [15, 19] | Redroot pigweed plant response rating [16, 18]
7: B. signalgrass plant response rating [3, 23] | Plant response rating, Soybean [6, 22] | Plant response rating, Nutsedge [11, 22] | Plant response rating, Corn [12, 21] | Rape plant response rating [14, 19] | Sugarbeets plant response rating [15, 20] | Redroot pigweed plant response rating [16, 23]
